Values joined by “and” are separate entries in the source; they are usually repeats but may differ in a detail not shown here. Equal entries are not always repeated.
Assays:
Format in all cases: in vivo
[1] = tested on: RenTG/L-NAME-supplemented male rats; test: RenTG rat model: survival rate assessment in male rats (B-1.1); conditions: for mortality: placebo 58%
Method: (§1) Male and female rennin-transgenic rats [TG(mRRen2)27] (RenTG rats) at the age of 8 weeks were used. Rats were randomized in groups with 12-24 rats/group. All groups were then chronically supplemented with L-NAME administrated via drinking water (30-50 mg/l). The L-NAME was dissolved in tap water and stored by room temperature. All groups were treated via oral gavage with either placebo/vehicle consisting of 10% transcutol, 20% cremophor and 70% tap water or different doses of the respective verum. The verum was dissolved in the vehicle and prepared freshly before administration. Study duration with concomitant L-NAME administration and treatment was up to 12 weeks. The baseline blood pressure was measured via tail-cuff method before the start of the treatment and after different time points during the study. Mortality and body weight were assessed on a daily basis. Urine samples were collected via the use of metabolic cages and urine was collected over a period of six hours to quantify proteinuria as correlate of kidney function and different urinary biomarkers for kidney and organ damage. At the end of the study all animals were kept in depth narcotic and bled via aortic puncture and sacrificed by permanent inhaled isoflurane, blood was taken in order to assess plasma parameters, and heart and kidney were weighed and harvested for histopathological evaluation.
The survival rate in % of the RenTG/L-NAME-supplemented male rats treated with either placebo, or 1, 3 and 10 mg/kg runcaciguat (example 1) BID was investigated (see table 1).

[2] = tested on: RenTG/L-NAME-supplemented male rats; test: RenTG rat model: kidney function by proteinuria (uPCR) in male rats (B-1.2); conditions: for uPCR % (normalized to placebo): placebo set as 100%
Method: as §1
Urinary protein to creatinine ratio in the RenTG/L-NAME-supplemented male rats treated with either placebo (set as 100%) or with 1, 3 and 10 mg/kg example 1 (runcaciguat) BID was investigated (see table is 2).

[3] = tested on: RenTG/L-NAME-supplemented female rats; test: RenTG rat model: survival rate assessment in female rats (B-1.3); conditions: 3 mg/kg BID, placebo 64.3%
Method: as §1, with “evaluation. […]” for “evaluation.”

[4] = tested on: RenTG/L-NAME-supplemented female rats; test: RenTG rat model: kidney function by proteinuria (uPCR) in female rats (B-1.4); conditions: 3 mg/kg BID; for uPCR % (normalized to placebo): placebo set as 100%
Method: as §1
Urinary protein to creatinine ratio in the RenTG/L-NAME-supplemented female rats treated with either placebo (set as 100%) or 3 mg/kg example 1 BID or example 3 BID respectively. Data are mean±SEM.

[5] = tested on: RenTG/L-NAME-supplemented male, female and female OVX rats; test: RenTG rat model: survival rate in male, female and female ovariectomized (OVX) rats, head-to-head, OD dosing (B-1.5); conditions: for % survival: 3 mg/kg OD
Method: as §1
In male rat 93% of rats survived whereas in female rats all the rats survived in the sGC activator treatment arm (100%). There was no difference in survival rates in female OVX rats compared to non-OVX rats.

[6] = tested on: RenTG/L-NAME-supplemented male, female and female OVX rats; test: RenTG rat model: proteinuria (uPCR) in male, female and female OVX rats, OD dosing (B-1.6); conditions: for Urinary protein to creatinine ratio: 3 mg/kg OD, placebo 100; for reduction of proteinuria: OD
Method: as §1
The most striking differences between male and female were seen on proteinuria. […] In female rats these effects were much more pronounced, and proteinuria was reduced by 88% and by 99% in female rats without OVX and with OVX, respectively.

SMILES: C[C@H]([C@H](C(=O)Nc1cc([C@@H](CC(=O)O)C2CC2)ccc1Cl)c1ccc(Cl)cc1)C(F)(F)F [Example 1, (3S)-3-(4-chloro-3-{[(2S,3R)-2-(4-chlorophenyl)-4,4,4-trifluoro-3-methylbutanoyl]amino}phenyl)-3-cyclopropylpropanoic acid]
- lower survival of male compared to female rats ([1]; 3 mg/kg BID, male rats at the point of 64% control survival vs female rats): 30%
- % survival ([1]; male rats, 1 mg/kg BID p.o.): 44%
- mortality ([1]; male rats, 1 mg/kg BID p.o.): 56%
- survival rate at the point when 64% of the male control animals were still alive ([1]; male rats, 3 mg/kg BID): 70%
- statistical evaluation of mortality reduction ([1]; male rats, 3 mg/kg BID p.o.): strong numerical trend
- % survival ([1]; male rats, 3 mg/kg BID p.o., 3 mg/kg): 60% and 61%
- mortality ([1]; male rats, 3 mg/kg BID p.o.): 39%
- % survival ([1]; male rats, 10 mg/kg BID p.o.): 72%
- statistical evaluation of mortality reduction ([1]; male rats, 10 mg/kg BID p.o.): reached statistical significance
- mortality ([1]; male rats, 10 mg/kg BID p.o.): 28%
- effect on survival rates ([1]; male rats, 1, 3 and 10 mg/kg BID p.o.): dose-dependently increased the survival rates
- reduction of proteinuria ([2]; 1 mg/kg BID): 15%
- uPCR % (normalized to placebo) ([2]; 1 mg/kg BID): 85.4%
- reduction of proteinuria ([2]; 3 mg/kg BID): 29%
- statistical evaluation of proteinuria reduction ([2]; 3 mg/kg BID): statistically significant
- uPCR % (normalized to placebo) ([2]; 3 mg/kg BID): 71.1%
- reduction of proteinuria ([2]; 10 mg/kg BID): 39%
- statistical evaluation of proteinuria reduction ([2]; 10 mg/kg BID): statistically significant
- uPCR % (normalized to placebo) ([2]; 10 mg/kg BID): 60.6%
- % survival [3]: 100%
- reduction of proteinuria [4]: 55%
- uPCR % (normalized to placebo) [4]: 44.5%

SMILES: CC(C)CN1CCN(c2ccc(-c3ccc(Cl)cc3N3CCC[C@@H](n4ncc(C(=O)O)c4C(F)F)C3)cc2)CC1 [Example 3, 1-{3(R)-1-[4-Chloro-4′-(4-isobutylpiperazin-1-yl)[biphenyl]-2-yl]piperidin-3-yl}-5-(difluoromethyl)-1H-pyrazole-4-carboxylic acid]
- % survival ([5]; female OVX rats, placebo 40%): 100%
- % survival ([5]; female rats, placebo 47%): 100%
- % survival ([5]; male rats, placebo 60%): 93%
- survival rate in male rats lower than in female rats ([5]; once daily dosing (OD)): 7%
- survival rates in female OVX rats compared to non-OVX rats ([5]; once daily dosing (OD)): no difference
- % survival ([3]; 3 mg/kg): 92,3%
- reduction of proteinuria [4]: 84%
- uPCR % (normalized to placebo) [4]: 16.4%
- Urinary protein to creatinine ratio ([6]; female OVX rats): 1
- reduction of proteinuria ([6]; female rats with OVX): 99%
- reduction of proteinuria ([6]; female rats without OVX): 88%
- Urinary protein to creatinine ratio ([6]; female rats): 12
- Urinary protein to creatinine ratio ([6]; male rats): 43
- reduction of proteinuria ([6]; male rats): 57%

Source: US20260248781A1, “SOLUBLE GUANYLATE CYCLASE ACTIVATORS FOR USE IN THE TREATMENT OF HEART FAILURE WITH PRESERVED EJECTION FRACTION IN WOMEN” (BAYER AKTIENGESELLSCHAFT, priority 2022, published 2026)
